Usually EC50 stands for the concentration that produces a half-maximal response.

The source of these data is ChEMBL document CHEMBL4138119, “Anti-diabetic activity of fused PPARγ-SIRT1 ligands with limited body-weight gain by mimicking calorie restriction and decreasing SGK1 expression” (Eur J Med Chem, 2017).

Data set [1] deals with T1, Peroxisome proliferator-activated receptor delta (Homo sapiens) (UniProt Q03181).
T1 sequence (whole entry): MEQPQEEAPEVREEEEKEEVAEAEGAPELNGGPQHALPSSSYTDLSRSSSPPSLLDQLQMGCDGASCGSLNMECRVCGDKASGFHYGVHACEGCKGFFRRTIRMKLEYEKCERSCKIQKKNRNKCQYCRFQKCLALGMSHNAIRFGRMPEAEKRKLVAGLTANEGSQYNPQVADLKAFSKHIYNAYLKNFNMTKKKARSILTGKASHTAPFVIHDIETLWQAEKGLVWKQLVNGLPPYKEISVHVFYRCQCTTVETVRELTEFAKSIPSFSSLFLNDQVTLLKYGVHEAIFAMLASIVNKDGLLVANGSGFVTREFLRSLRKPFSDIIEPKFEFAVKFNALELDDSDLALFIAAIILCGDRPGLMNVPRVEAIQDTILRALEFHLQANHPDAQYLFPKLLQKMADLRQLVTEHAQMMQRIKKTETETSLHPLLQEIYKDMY
The data set can be described thus: Transactivation of human PPARdelta at 10 uM.

Data set [2] deals with T2, Peroxisome proliferator-activated receptor alpha (Homo sapiens) (UniProt Q07869).
T2 sequence (whole entry): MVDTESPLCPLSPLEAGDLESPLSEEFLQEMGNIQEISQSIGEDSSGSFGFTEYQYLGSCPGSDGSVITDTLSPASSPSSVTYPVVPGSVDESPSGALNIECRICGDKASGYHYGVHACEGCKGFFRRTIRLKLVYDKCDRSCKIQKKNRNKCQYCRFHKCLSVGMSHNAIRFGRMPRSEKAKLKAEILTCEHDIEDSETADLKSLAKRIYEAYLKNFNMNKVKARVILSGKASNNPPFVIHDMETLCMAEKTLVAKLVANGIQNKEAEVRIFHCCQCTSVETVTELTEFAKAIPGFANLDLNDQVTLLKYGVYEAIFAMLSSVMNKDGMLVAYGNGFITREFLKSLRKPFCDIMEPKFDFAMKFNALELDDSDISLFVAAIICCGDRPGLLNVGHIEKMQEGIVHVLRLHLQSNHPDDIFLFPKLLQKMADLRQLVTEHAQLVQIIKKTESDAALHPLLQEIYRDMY
The data set can be described thus: Transactivation of human Gal4-fused PPARalpha LBD expressed in African green monkey COS7 cells after 24 hrs by luciferase reporter gene assay relative to WY14643. In kind it is cell-based. On the technique in general: Reporter assays use an easily measured gene product as a stand-in for the process of interest.

Data set [3] has as its target T3, Peroxisome proliferator-activated receptor alpha (Homo sapiens, UniProt Q07869).
T3 sequence (Q07869 whole entry): T2 sequence (whole entry)
In words: Transactivation of human Gal4-fused PPARalpha LBD expressed in African green monkey COS7 cells after 24 hrs by luciferase reporter gene assay. In kind it is cell-based.

For data set [4], the target named is T4, Peroxisome proliferator-activated receptor gamma (Homo sapiens, UniProt P37231).
T4 sequence (P37231 whole entry): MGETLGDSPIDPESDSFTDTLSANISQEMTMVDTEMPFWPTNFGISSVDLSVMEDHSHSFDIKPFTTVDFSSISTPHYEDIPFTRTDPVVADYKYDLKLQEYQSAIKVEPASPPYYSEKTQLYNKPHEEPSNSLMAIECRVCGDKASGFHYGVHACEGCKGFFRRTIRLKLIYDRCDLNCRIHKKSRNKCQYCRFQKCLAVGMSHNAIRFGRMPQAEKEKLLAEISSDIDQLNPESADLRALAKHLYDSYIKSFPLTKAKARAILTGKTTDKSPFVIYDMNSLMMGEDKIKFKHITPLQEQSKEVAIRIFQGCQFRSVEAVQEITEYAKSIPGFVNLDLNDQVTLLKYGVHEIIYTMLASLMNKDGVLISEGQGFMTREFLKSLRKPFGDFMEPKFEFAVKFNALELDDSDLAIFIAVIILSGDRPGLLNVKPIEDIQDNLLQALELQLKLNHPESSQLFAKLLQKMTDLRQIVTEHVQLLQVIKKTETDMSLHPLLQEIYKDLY
In words: Transactivation of human Gal4-fused PPARgamma LBD expressed in African green monkey COS7 cells after 24 hrs by luciferase reporter gene assay. In kind it is cell-based.

Data set [5] concerns Mus musculus. The data set can be described thus: Anti-diabetic activity in ob/ob mouse assessed as change in serum triglyceride levels at 8.4 uM/kg administered via oral gavage daily for 4 days measured on day 5 relative to control. In kind it is functional.
Data set [6] deals with Mus musculus. The data set can be described thus: Anti-diabetic activity in ob/ob mouse assessed as change in serum glucose levels at 8.4 uM/kg administered via oral gavage daily for 4 days measured on day 5 relative to control. In kind it is functional.
The test system of data set [7] is Mus musculus. The data set can be described thus: Anti-diabetic activity in ob/ob mouse assessed as change in serum insulin levels at 8.4 uM/kg administered via oral gavage daily for 4 days measured on day 5 relative to control. In kind it is functional.
In data set [8] the test system is Mus musculus. The data set can be described thus: Toxicity in ob/ob mouse assessed as change in body weight at 8.4 uM/kg administered via oral gavage daily for 4 days measured on day 5 relative to control. In kind it is organism-based. To be noted: in vivo, 96 h, 8.4 µmol/kg.
The target in data set [9] is T5, NAD-dependent protein deacetylase sirtuin-1 (Homo sapiens) (UniProt Q96EB6).
T5 sequence (whole entry): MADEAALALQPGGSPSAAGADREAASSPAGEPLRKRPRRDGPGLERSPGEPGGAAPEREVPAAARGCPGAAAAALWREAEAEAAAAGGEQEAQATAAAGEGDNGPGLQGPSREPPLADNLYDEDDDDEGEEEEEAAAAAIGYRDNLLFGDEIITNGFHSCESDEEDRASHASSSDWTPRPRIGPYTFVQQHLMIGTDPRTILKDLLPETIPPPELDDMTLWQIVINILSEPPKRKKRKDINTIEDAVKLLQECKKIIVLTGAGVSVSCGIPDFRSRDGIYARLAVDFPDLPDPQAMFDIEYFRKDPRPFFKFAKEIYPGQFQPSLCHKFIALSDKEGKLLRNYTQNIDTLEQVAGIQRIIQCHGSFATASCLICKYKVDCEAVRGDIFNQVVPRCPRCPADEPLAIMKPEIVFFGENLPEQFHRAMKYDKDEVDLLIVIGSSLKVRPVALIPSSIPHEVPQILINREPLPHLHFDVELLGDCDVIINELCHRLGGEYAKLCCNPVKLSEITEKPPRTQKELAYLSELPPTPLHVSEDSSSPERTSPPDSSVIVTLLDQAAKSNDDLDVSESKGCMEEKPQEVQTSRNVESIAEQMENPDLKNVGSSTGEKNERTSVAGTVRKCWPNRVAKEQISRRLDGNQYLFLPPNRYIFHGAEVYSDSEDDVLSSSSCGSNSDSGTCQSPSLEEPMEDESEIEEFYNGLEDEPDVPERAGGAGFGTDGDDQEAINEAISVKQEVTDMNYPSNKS
The data set can be described thus: Activation of recombinant human SIRT1 at 10 uM using C-terminal AMC labeled Arg-His-Lys-Lys (Ac) as substrate after 30 mins by FLUOR DE LYS fluorescent assay relative to control.

The nature of data set [10]: Modulation of SGK1 mRNA expression in HCCD cells at 20 uM after 24 hrs by RT-PCR method relative to control. In kind it is functional, Homo sapiens.

Active and inactive are the calls of the source. The rule behind the calls is not given here.

For the molecule `CCOC(Cc1ccc(OCCn2c(=O)sc3cc(/C=C/c4cc(OC)cc(OC)c4)ccc32)cc1)C(=O)O` (centres undefined), in data set [1], the result was inactive. Moreover, the Emax in data set [2] was determined as 494%. Further, the EC50 was 1000 nM in data set [3] and below 10 nM in [4] (read-out: EC50). Further, the Activity in the data set on Mus musculus [5] is reported as -56%; in the data set with Mus musculus [6] it was -42%; in the data set on Mus musculus [7], -33%; with Mus musculus [8], 192%.
Take `COc1cc(/C=C/c2ccc3c(c2)sc(=O)n3CCOc2ccc(CC(OCC(F)(F)F)C(=O)O)cc2)cc(OC)c1` (centres undefined): the outcome in data set [1] was inactive. The molecule further showed an Emax in data set [2] of 170%. Further, the EC50 was found to be 300 nM in [3] and 20 nM in data set [4] (read-out: EC50). For the same molecule, the Activity in [9] is -4%; in data set [10], 89%; with Mus musculus [5], -23%; in the data set with Mus musculus [6] it was -36%; with Mus musculus [7], -61%; with Mus musculus [8] it was 81%.
As to `CCOC(Cc1ccc(OCCn2c(=O)sc3cc(C(=O)/C=C/c4cc(OC)cc(OC)c4)ccc32)cc1)C(=O)O` (centres undefined), the outcome in data set [1] was inactive. For the same molecule, the Emax in [2] worked out at 53%. Also, the EC50 is 10000 nM in [3] and 1000 nM in [4] (read-out: EC50). Further, the Activity in data set [9] was 23%; in data set [10], 736%; in the data set with Mus musculus [5], -31%; with Mus musculus [6], -27%; in the data set on Mus musculus [7], 18%; in the data set on Mus musculus [8], 150%.
Turning to `CCOC(=O)C(Cc1ccc(OCCn2c(=O)sc3cc(C(=O)/C=C/c4cc(O)cc(O)c4)ccc32)cc1)OCC` (centres undefined), the result in data set [1] was inactive. This molecule yielded an Emax in [2] of 42%. The EC50 in data set [3] is 10000 nM; in [4] (read-out: EC50) it was 20 nM. Moreover, the Activity in data set [9] was 0%; in data set [10], 243%; with Mus musculus [5] it was -28%; in the data set with Mus musculus [6] it was -30%; in the data set with Mus musculus [7], -4%; in the data set on Mus musculus [8], 91%.
Consider `CCOC(=O)C(Cc1ccc(OCCn2c(=O)sc3cc(C(=O)/C=C/c4cc(OC)cc(OC)c4)ccc32)cc1)OCC(F)(F)F` (centres undefined), for which the result in data set [1] was inactive. The molecule further returned an Emax in data set [2] of 21%. Further, the EC50 turned out to be 10000 nM in data set [3] and 200 nM in [4] (read-out: EC50). The Activity in data set [9] was 0%; in data set [10], -53%; in the data set with Mus musculus [5], -24%; in the data set on Mus musculus [6], 2%; in the data set with Mus musculus [7] it was 17%; in the data set with Mus musculus [8], 93%.
With `CCOC(=O)C(Cc1ccc(OCCn2c(=O)sc3cc(/C=C/c4cc(OC)cc(OC)c4)ccc32)cc1)OCC` (centres undefined), in data set [1], the result was inactive. In addition, the Emax in data set [2] was 149%. Further, the figures for the EC50 in data set [3] and in data set [4] (read-out: EC50) were 2000 nM and below 10 nM, respectively. The Activity in data set [9] is 13%; in data set [10] it was -23%; in the data set on Mus musculus [5], -35%; in the data set on Mus musculus [6], -36%; with Mus musculus [7], -28%; in the data set on Mus musculus [8], 79%.
Regarding `CCOC(Cc1ccc(OCCn2c(=O)sc3cc(/C=C/c4cc(OC)cc(OC)c4)ccc32)cc1)C(N)=O` (centres undefined), the result in data set [1] was inactive. In data set [2], this molecule yielded an Emax of 35%. Moreover, the EC50 was 1000 nM in data set [3] and below 10 nM in [4] (read-out: EC50). Also, the Activity in [9] was -12%; in [10] it was -43%; in the data set on Mus musculus [5], -32%; with Mus musculus [6] it was -27%; in the data set on Mus musculus [7], -26%; in the data set with Mus musculus [8], 158%.
Turning to `Cc1cccc(Nc2cc(Cl)nc(SCC(=O)O)n2)c1C` [PIRINIXIC ACID], the EC50 entry in data set [4] is “Not Active”.
Regarding `O=C(O)C(Cc1ccc(OCCn2c(=O)sc3cc(/C=C/c4cc(O)cc(O)c4)ccc32)cc1)OCC(F)(F)F` (centres undefined), in data set [1], the outcome was inactive. This molecule also displayed an Emax in [2] of 100%. In addition, the EC50 turned out to be 10000 nM in [3] and 200 nM in data set [4] (read-out: EC50). Besides, the Activity in [9] is 128%; in data set [10], -57%; with Mus musculus [5] it was -39%; in the data set with Mus musculus [6], -40%; in the data set on Mus musculus [7], -43%; with Mus musculus [8] it was 32%.
As to `CCOC(=O)C(Cc1ccc(OCCn2c(=O)sc3cc(/C=C/c4cc(OC)cc(OC)c4)ccc32)cc1)OCC(F)(F)F` (centres undefined), the result in data set [1] was inactive. The molecule also gave an Emax in data set [2] of 136%. Also, the EC50 in data set [3] came to 10000 nM; in data set [4] (read-out: EC50), 50 nM. The Activity was -7% in data set [9]; -62% in data set [10]; -3% with Mus musculus [5]; -11% with Mus musculus [6]; -14% in the data set on Mus musculus [7]; 61% with Mus musculus [8].
`CCOC(=O)C(Cc1ccc(OCCn2c(=O)sc3cc(/C=C/c4cc(O)cc(O)c4)ccc32)cc1)OCC(F)(F)F` (centres undefined): the outcome in data set [1] was inactive. In [2], the Emax is 149%. Besides, the EC50 amounted to 10000 nM in [3] and 80 nM in data set [4] (read-out: EC50). Further, the Activity in [9] is -28%; in data set [10], 83%; with Mus musculus [5], -25%; in the data set on Mus musculus [6], -40%; in the data set with Mus musculus [7], -41%; in the data set on Mus musculus [8], 56%.
In the case of `CCOC(=O)C(Cc1ccc(OCCn2c(=O)sc3cc(C(=O)/C=C/c4cc(O)cc(O)c4)ccc32)cc1)OCC(F)(F)F` (centres undefined), the result in [1] was inactive. In addition, the Emax in [2] stood at 12%. Besides, the figures for the half-maximal effective concentration (EC50) in [3] and in data set [4] (read-out: EC50) were 10000 nM and 30 nM, respectively. The Activity was 24% in data set [9]; 180% in data set [10]; -8% in the data set on Mus musculus [5]; -5% with Mus musculus [6]; 11% with Mus musculus [7]; 75% in the data set with Mus musculus [8].
